Values of other authors, collected in US20110082407A1, “Combination Therapies for the Treatment of Obesity” (priority 2009, published 2011).

Columns and labels:
[1] = literature studies
[2] = in vivo

Row | Compound | weight loss of body weight for drug compared with placebo [1] | clinically significant side effect limiting clinical use [2] | solubility in water
1 | CCN[C@@H](C)Cc1cccc(C(F)(F)F)c1 [dexfenfluramine] | about 5% | suspected heart valvulopathy | 
2 | CCNC(C)Cc1cccc(C(F)(F)F)c1 (centres unmarked) [fenfluramine] |  | caused heart-valve complications | 
3 | CCCCCCCCCCC[C@@H](C[C@@H]1OC(=O)[C@H]1CCCCCC)OC(=O)[C@H](CC(C)C)NC=O [orlistat] | about 5% | GI side effects | 
4 | CC(C)CC(N(C)C)C1(c2ccc(Cl)cc2)CCC1 (centres unmarked) [sibutramine] | about 5% | can cause hypertension | 
5 | triacetyl-beta-cyclodextrin |  |  | insoluble
